In article PMC10810197, “A KDPG sensor RccR governs Pseudomonas aeruginosa carbon metabolism and aminoglycoside antibiotic tolerance” (Nucleic Acids Research, 2023):

How the values were obtained:
RccR (PA5438) [1] = target: T1, RccR (PA5438) (Pseudomonas aeruginosa, UniProt Q9HTC8); experiment: isothermal titration calorimetry; assay type: binding
T1 construct: tetramer in crystal

RccR (PA5438) [2] = target: T1, RccR (PA5438); experiment: X-ray crystal structure of the complex, […] Å; assay type: binding; conditions: space group I222, four monomers each with KDPG; PDB code not given
RccR (PA5438) [3] = target: RccR (PA5438) (Pseudomonas aeruginosa, UniProt Q9HTC8, S185A); experiment: biochemical
RccR (PA5438) (Pseudomonas aeruginosa, UniProt Q9HTC8, S185A), sequence (Q9HTC8 whole entry S185A): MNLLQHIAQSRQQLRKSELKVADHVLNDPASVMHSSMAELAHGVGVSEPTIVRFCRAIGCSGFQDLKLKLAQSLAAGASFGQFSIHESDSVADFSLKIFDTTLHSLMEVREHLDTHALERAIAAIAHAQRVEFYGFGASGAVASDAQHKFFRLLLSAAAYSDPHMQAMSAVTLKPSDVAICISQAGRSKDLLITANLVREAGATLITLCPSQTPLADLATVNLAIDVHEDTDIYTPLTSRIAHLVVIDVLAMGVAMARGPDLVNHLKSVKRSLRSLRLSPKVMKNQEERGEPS

RccR (PA5438) [4] = target: RccR (PA5438) (Pseudomonas aeruginosa, UniProt Q9HTC8, S183A); experiment: biochemical
RccR (PA5438) (Pseudomonas aeruginosa, UniProt Q9HTC8, S183A), sequence (Q9HTC8 whole entry S183A): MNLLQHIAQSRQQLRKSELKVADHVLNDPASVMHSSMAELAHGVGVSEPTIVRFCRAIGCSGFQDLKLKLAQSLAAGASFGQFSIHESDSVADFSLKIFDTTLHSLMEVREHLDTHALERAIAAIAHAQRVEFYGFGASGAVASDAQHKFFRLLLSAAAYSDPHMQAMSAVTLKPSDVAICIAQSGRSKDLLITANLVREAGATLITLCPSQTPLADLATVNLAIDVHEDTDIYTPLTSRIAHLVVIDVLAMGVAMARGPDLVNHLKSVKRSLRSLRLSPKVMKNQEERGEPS

RccR (PA5438) [5] = target: RccR (PA5438) (Pseudomonas aeruginosa, UniProt Q9HTC8, S188A); experiment: biochemical
RccR (PA5438) (Pseudomonas aeruginosa, UniProt Q9HTC8, S188A), sequence (Q9HTC8 whole entry S188A): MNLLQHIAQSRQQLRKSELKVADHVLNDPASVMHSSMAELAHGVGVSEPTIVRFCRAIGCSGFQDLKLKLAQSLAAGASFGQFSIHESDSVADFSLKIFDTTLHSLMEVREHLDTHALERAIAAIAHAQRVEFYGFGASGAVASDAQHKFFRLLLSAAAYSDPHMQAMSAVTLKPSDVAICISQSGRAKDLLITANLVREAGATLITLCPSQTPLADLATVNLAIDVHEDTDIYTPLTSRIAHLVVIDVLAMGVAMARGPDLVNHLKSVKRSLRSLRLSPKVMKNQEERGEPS

T1 sequence (Q9HTC8 entry or part of it): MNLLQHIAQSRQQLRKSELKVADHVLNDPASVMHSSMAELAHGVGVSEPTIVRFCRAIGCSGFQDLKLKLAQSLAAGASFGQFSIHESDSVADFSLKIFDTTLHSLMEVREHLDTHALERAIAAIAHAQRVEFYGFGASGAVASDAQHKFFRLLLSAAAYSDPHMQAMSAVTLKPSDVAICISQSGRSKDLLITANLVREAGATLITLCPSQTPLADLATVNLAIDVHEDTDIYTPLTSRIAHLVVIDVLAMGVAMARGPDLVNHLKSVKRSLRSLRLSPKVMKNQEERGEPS

Q: How did the Kd (RccR (PA5438) [1]) turn out when `O=C(O)C(=O)C[C@H](O)[C@H](O)COP(=O)(O)O` [KDPG] was run?
A: 3.31 µM

Q: What about the “X-ray crystal structure of the complex, 1.9 Å” value (RccR (PA5438) [2]) of the same compound?
A: Each monomer in this complex structure harbors a well-defined signal molecule KDPG

Q: What about the Kd (RccR (PA5438) [3]) of the same compound?
A: 21 µM

Q: What about the Kd (RccR (PA5438) [4]) of the same compound?
A: 28.7 µM

Q: And the Kd (RccR (PA5438) [5])?
A: 15.7 µM
